Measured values taken from patent publication US7838527B2, “Methods of treating cancer and related methods” (Novartis Vaccines and Diagnostics, Inc., priority 2002, dated 2010).
Read-outs that look alike come from different tables or passages of the source.

Key:
[1] = Compound 1 and metabolite levels in pooled rat plasma, 2 week toxicology study; assay type: in vivo; settings: metabolites estimated by UV; for concentration at 0 h / concentration at 24 h: rat, plasma, po, read-out: Level in Rat Plasma
[2] = Metabolite profile in monkey plasma, multiple oral dose study; assay type: in vivo; settings: for level in plasma: compound 1 5 mg/kg BID oral (10 mg/kg/day), Day 1, metabolite estimated by UV
[3] = tested on: PC3 human prostate tumor
[4] = Plasma pharmacokinetics in KM12L4a tumor-bearing mice; assay type: in vivo; settings: 300 mg/kg/day p.o.; Day 18; from 3 concentration-time pairs
[5] = 30 mg/kg, compound 1 30 mg/kg PO once a day, Day 1
[6] = 100 mg/kg, compound 1 100 mg/kg PO once a day, Day 1
[7] = 100 mg/kg, compound 1 100 mg/kg PO once a day, Day 14

SMILES	Level in Rat Plasma ([1]; compound 1 30 mg/kg PO once a day, Day 1, 1-2 hr)	Level in Rat Plasma ([1]; compound 1 30 mg/kg PO once a day, Day 1, 4-8 hr)	Level in Rat Plasma ([1]; compound 1 100 mg/kg PO once a day, Day 14, 1-2 hr)	Level in Rat Plasma ([1]; compound 1 100 mg/kg PO once a day, Day 14, 4-8 hr)	concentration at 0 h [1, 5]	concentration at 0 h [1, 6]	concentration at 24 h [1, 6]	concentration at 0 h [1, 7]	concentration at 24 h [1, 7]	level in plasma ([2]; pooled 0 hr)	level in plasma ([2]; pooled 1, 2 hr)	level in plasma ([2]; pooled 4, 8 hr)	level in plasma ([2]; pooled 12, 13, 14, 16, 20, 24 hr)	% TGI vs. vehicle ([3]; 100 mpk q 2 days)	% TGI vs. vehicle ([3]; 100 mpk q 3 days)	% TGI vs. vehicle ([3]; 100 mpk q 4 days)	AUC [4]	detection of metabolite in plasma ([2]; monkey, compound 1 5 mg/kg BID oral, day 1 and 14 samples)
Nc1c(-c2nc3ccc(N4CCNCC4)cc3[nH]2)c(=O)[nH]c2cccc(F)c12 [Compound 3, 4-amino-5-fluoro-3-[6-(piperazin-1-yl)-1H-benzimidazol-2-yl]quinolin-2(1H)-one]	14 ng/mL	48 ng/mL	17 ng/mL	19 ng/mL	0 ng/mL	0 ng/mL	83 ng/mL	15 ng/mL	10 ng/mL	0 ng/mL	8.5 ng/mL	31 ng/mL	10 ng/mL					
CN1CCN(c2ccc3nc(-c4c(N)c5c(F)cccc5[nH]c4=O)[nH]c3c2)CC1 [Compound 1]														75%	68%	66%	58400 ng·h/mL	
C[N+]1([O-])CCN(c2ccc3nc(-c4c(N)c5c(F)cccc5[nH]c4=O)[nH]c3c2)CC1 [Compound 2, 4-amino-5-fluoro-3-[6-(4-methyl-4-oxidopiperazin-1-yl)-1H-benzimidazol-2-yl]quinolin-2(1H)-one]					0 ng/mL	0 ng/mL	137 ng/mL	67 ng/mL	102 ng/mL									not detected
